Measurements published in patent US8026257B2 (Bristol-Myers Squibb Company, priority 2007, dated 2011).

Columns and labels:
hSERT = hSERT (Homo sapiens, UniProt P31645); experiment: SERT radioligand binding assay ([125I]RTI-55, HEK-hSERT membranes); settings: HEK-293 hSERT membranes, 260 pM [125I]RTI-55, 1 hour at room temperature; read-out: SERT IC50
Protocol: (§1) NK-1 Binding assay. Crude membrane suspensions were prepared for the NK1 and SERT radioligand binding assays from U373 cells or recombinant HEK-293 cells expressing hSERT, respectively. Cells were harvested from T-175 flasks as follows. The medium is removed from the flasks and the cells rinsed with HBSS without Ca and without Mg. The cells are then incubated for 5-10 minutes in 10 mM Tris-Cl, pH 7.5, 5 mM EDTA before the cells are lifted with a combination of pipetting and scraping, as needed. To prepare membranes, the cell suspension is collected into centrifuge bottles and homogenized for 30 seconds with a Polytron homogenizer. The suspension is centrifuged for 30 min@32,000×g, 4° C., then the supernatant is decanted and the pellet resuspended and homogenized in 50 mM Tris-Cl, pH 7.5, 1 mM EDTA for 10 seconds. The suspension is then centrifuged again for 30 min@32,000×g, 4° C. The supernatant is decanted and the pellet resuspended in 50 mM Tris-Cl, pH 7.5, 1 mM EDTA and briefly homogenized. A Bradford assay (Bio-rad) is performed and the membrane preparation diluted to 2 mg/ml with 50 mM Tris-Cl, pH 7.5, 1 mM EDTA. Aliquots are prepared, and then frozen and stored at −80° C.
SERT radioligand binding assay. Compounds are dissolved in 100% DMSO at a concentration 100× the desired highest assay concentration, serially diluted 1:3 in 100% DMSO, and 0.4 ul/well of each solution is dispensed to a Nunc polypropylene, round bottom, 384 well plate. 100% inhibition is defined with 0.4 ul/well of 1 mM fluoxetine (Sigma F-132) dissolved in DMSO. 20 ul/well of a 2× HEK-hSERT membrane preparation (15 ug/ml in 50 mM Tris-Cl, pH 7.5, 120 mM NaCl, 5mM KCl) and 20 ul/well of a 2× radioligand solution (520 pM [^125I]RTI-55 (Perkin-Elmer NEX-272) in 50 mM Tris-Cl, pH 7.5, 120 mM NaCl, 5mM KCl) are added to each well and the reaction incubated for 1 hour at room temperature. The contents of the assay plate are then transferred to a Millipore MultiscreenHTs GF/B filter plate which has been pretreated with 0.5% PEI for at least one hour. The plate is vacuum filtered and washed with 7 washes of 100 ul/well of 50 mM Tris-Cl, pH 7.5, 120 mM NaCl, 5 mM KCl chilled to 4° C. The filtration and washing is completed in less than 90 s. The plates are air-dried overnight, 12 ul/well of MicroScint scintillation fluid added, and the plates counted in a Trilux.
(§2) Data analysis. The raw data are normalized to percent inhibition using control wells defining 0% (DMSO only) and 100% (selective inhibitor) inhibition which are run on each plate. Each plate is run in triplicate, and the concentration response curve thus generated is fit using the four-parameter dose response equation, Y=Bottom+(Top-Bottom)/(1+10^((LogIC50−X)*HillSlope)) in order to determine the IC50 value for each compound. The radioligand concentration chosen for each assay corresponds to the Kd concentration determined through saturation binding analysis for each assay.

NK-1 = biological target: T1, NK-1 (Homo sapiens, UniProt P25103); experiment: NK1 radioligand binding assay ([125I]Substance P, U373 membranes); settings: U373 cell membranes, 200 pM [125I]Substance P, 1 hour at room temperature
T1 construct: 30 ul/well of a 2×U373 membrane preparation
Protocol: as §1
NK1 radioligand binding assay. Compounds are dissolved in 100% DMSO at a concentration 100× the desired highest assay concentration, serially diluted 1:3 in 100% DMSO, and 0.6 ul/well of each solution is dispensed to a Nunc polypropylene, round bottom, 384 well plate. 100% inhibition is defined with 0.6 ul/well of 1 mM L-733,060 (Sigma L-137) dissolved in DMSO. 30 ul/well of a 2×U373 membrane preparation (267 ug/ml in 100 mM Tris-Cl, pH 7.5, 6 mM MgCl2, 0.2% (v/v) Sigma mammalian protease inhibitor cocktail (Sigma P-8340), and 4 ug/ml chymostatin, Sigma C-7268) and 30 ul/well of a 2× radioligand solution (400 pM [^125I]Substance P (Perkin ElmerNEX-190) in 1% (w/v) BSA (Sigma A-2153), 0.1 mg/ml bacitracin, Sigma B-0125) are added to the well and the reaction incubated for 1 hour at room temperature. The contents of the assay plate are then transferred to a Millipore MultiscreenHTS GF/B filter plate which has been pretreated with 0.5% PEI for at least one hour. The plate is vacuum filtered and washed with 7 washes of 100 ul/well of 20 mM Tris-Cl, pH 7.5, 0.5% (w/v) BSA chilled to 4° C. The filtration and washing is completed in less than 90 s. The plates are air-dried overnight, 12 ul/well of MicroScint scintillation fluid added, and the plates counted in a Trilux.
as §2

T1 sequence (P25103 whole entry): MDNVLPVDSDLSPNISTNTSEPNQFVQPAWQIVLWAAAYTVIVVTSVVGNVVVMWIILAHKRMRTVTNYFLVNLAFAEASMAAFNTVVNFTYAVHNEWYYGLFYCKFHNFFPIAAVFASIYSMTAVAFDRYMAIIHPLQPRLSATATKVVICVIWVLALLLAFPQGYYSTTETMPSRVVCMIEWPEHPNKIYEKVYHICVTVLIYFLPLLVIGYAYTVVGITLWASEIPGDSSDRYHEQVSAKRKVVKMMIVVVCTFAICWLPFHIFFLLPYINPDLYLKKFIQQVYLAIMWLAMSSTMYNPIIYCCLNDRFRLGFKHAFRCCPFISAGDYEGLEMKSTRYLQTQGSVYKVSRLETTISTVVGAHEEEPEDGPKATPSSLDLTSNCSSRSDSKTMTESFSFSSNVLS
Sequence of hSERT (P31645 whole entry): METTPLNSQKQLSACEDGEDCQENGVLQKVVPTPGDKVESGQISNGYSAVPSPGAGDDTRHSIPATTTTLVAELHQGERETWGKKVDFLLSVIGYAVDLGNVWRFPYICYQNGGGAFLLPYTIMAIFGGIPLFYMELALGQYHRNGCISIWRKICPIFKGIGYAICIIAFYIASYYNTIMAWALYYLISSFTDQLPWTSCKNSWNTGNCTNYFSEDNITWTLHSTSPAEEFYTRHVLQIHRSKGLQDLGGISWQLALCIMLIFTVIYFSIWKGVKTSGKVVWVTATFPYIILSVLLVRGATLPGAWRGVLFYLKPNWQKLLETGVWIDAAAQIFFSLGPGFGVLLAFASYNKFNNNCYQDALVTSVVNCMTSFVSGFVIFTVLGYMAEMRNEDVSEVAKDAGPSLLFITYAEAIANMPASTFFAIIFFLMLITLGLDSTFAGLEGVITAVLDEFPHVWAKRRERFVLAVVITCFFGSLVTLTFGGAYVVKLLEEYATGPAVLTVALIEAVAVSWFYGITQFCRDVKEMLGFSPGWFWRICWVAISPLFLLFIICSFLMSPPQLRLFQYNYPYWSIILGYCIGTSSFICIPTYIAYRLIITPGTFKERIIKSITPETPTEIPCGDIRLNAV

| Structure (SMILES) | IC50 (hSERT) [nM] | IC50 (NK-1) [nM] |
| --- | --- | --- |
| CC(OCC1(c2ccccc2)CCNCC1)c1cc(C(F)(F)F)cc2cn[nH]c12 (racemic) [Example 20, (±)-7-(1-((4-Phenylpiperidin-4-yl)methoxy)ethyl)-5-(trifluoromethyl)-1H-indazole] | 0.01 to 100 | 0.01 to 100 |
| CC(OCC1(c2ccccc2)CCN(C)CC1)c1cc(C(F)(F)F)cc2cn[nH]c12 (racemic) [Example 21, (±)-7-(1-((1-Methyl-4-phenylpiperidin-4-yl)methoxy)ethyl)-5-(trifluoromethyl)-1H-indazole] | 0.01 to 100 | 0.01 to 100 |
| CC(OCC1(c2ccccc2)CCNCC1)c1cc(Cl)cc2cn[nH]c12 (racemic) [Example 38, (±)-5-Chloro-7-(1-((4-phenylpiperidin-4-yl)methoxy)ethyl)-1H-indazole] | 0.01 to 100 | 0.01 to 100 |
| CC(OCC1(c2ccccc2)CCN(C)CC1)c1cc(Cl)cc2cn[nH]c12 (racemic) [Example 39, (±)-5-Chloro-7-(1-((1-methyl-4-phenylpiperidin-4-yl)methoxy)ethyl)-1H-indazole] | 0.01 to 100 | 0.01 to 100 |
| CC(OCC1(c2ccccc2)CCNCC1)c1cc(Cl)cc2cnn(C)c12 (racemic) [Example 40, (±)-5-Chloro-1-methyl-7-(1-((4-phenylpiperidin-4-yl)methoxy)ethyl)-1H-indazole] | 0.01 to 100 | 0.01 to 100 |
| CC(OCC1(c2ccccc2)CCN(C)CC1)c1cc(C(F)(F)F)cc2c(C#N)n[nH]c12 (racemic) [Example 42, (±)-7-(1-((1-methyl-4-phenylpiperidin-4-yl)methoxy)ethyl)-5-(trifluoromethyl)-1H-indazole-3-carbonitrile] | 100 to 300 | 0.01 to 100 |
| Cc1n[nH]c2c(C(C)OCC3(c4ccccc4)CCNCC3)cc(C(F)(F)F)cc12 (racemic) [Example 43, (±)-3-Methyl-7-(1-((4-phenylpiperidin-4-yl)methoxy)ethyl)-5-(trifluoromethyl)-1H-indazole] | 0.01 to 100 | 0.01 to 100 |
| Cc1n[nH]c2c(C(C)OCC3(c4ccccc4)CCN(C)CC3)cc(C(F)(F)F)cc12 (racemic) [Example 44, (±)-3-Methyl-7-(1-((1-methyl-4-phenylpiperidin-4-yl)methoxy)ethyl)-5-(trifluoromethyl)-1H-indazole] | 0.01 to 100 | 0.01 to 100 |
| CC(OCC1(c2ccc(F)cc2)CCN(C)CC1)c1cc(Br)cc2cn[nH]c12 (racemic) [Example 46, (±)-5-Bromo-7-(1-((4-(4-fluorophenyl)-1-methylpiperidin-4-yl)methoxy)ethyl)-1H-indazole] | 0.01 to 100 | 0.01 to 100 |
| CC(OCC1(c2ccc(F)cc2)CCN(C)CC1)c1cc(C2CC2)cc2cn[nH]c12 (racemic) [Example 47, (±)-5-Cyclopropyl-7-(1-((4-(4-fluorophenyl)-1-methylpiperidin-4-yl)methoxy)ethyl)-1H-indazole] | 0.01 to 100 | 0.01 to 100 |
| CC(OCC1(c2ccc(F)cc2)CCN(C)CC1)c1cc(C#N)cc2cn[nH]c12 (racemic) [Example 48, (±)-7-(1-((4-(4-Fluorophenyl)-1-methylpiperidin-4-yl)methoxy)ethyl)-1H-indazole-5-carbonitrile] | 0.01 to 100 | 0.01 to 100 |
| Cc1cc(C(C)OCC2(c3ccc(F)cc3)CCN(C)CC2)c2[nH]ncc2c1 (racemic) [Example 49, (±)-7-(1-((4-(4-Fluorophenyl)-1-methylpiperidin-4-yl)methoxy)ethyl)-5-methyl-1H-indazole] | 0.01 to 100 | 0.01 to 100 |
| C[C@@H](OCC1(c2ccc(F)cc2)CCN(C)CC1)c1cc(Cl)cc2c(Cl)n(CC(F)(F)F)nc12 [Example 117, (R)-3,5-dichloro-7-(1-((4-(4-fluorophenyl-1-methyl)piperidine-4-yl)methoxy)ethyl)-2-(2,2,2-trifluoroethyl)-1H-indazole] | – | 0.01 to 100 |
